One assay relates to ZR-75-1 cells. In words: ZR-75-1 proliferation assay. It is filed as cell-based. The note with it: Homo sapiens, ZR-75-1, 144 h, Alamar Blue, read-out: ZR75-1 proliferation assay, EC50 [M] (arithmetic mean). In short, it runs like this:
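ZR-75-1 cells (focal KAT6A amplification), 3000 per well in RPMI 1640 with 2.5% FBS, were exposed to compound in triplicate for 144 h at 37 °C, 5% CO2. Viability read by Alamar Blue fluorescence at 590 nm after 2 h.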

For assay [1], the target named is T1, Recombinant human GST-tagged Kat6b protein (431-end) (Homo sapiens, UniProt Q8WYB5).
T1 construct: Kat6b protein (431-end, N-terminal GST-tag); GST (N)
In words: Kat6b activity assay (TR-FRET, acetylation of Histone-H4-derived peptide). It counts as biochemical. The note with it: 30 mins at 22° C., 500 nM H4 peptide, 600 nM Acetyl Coenzyme A, read-out: KAT6B activity assay IC50 [mol/l] (arithmetic mean). As for the experimental part:
Kat6b inhibitory activities of the compounds described in the present invention were quantified using a Fluorescence Resonance Energy Transfer (TR-FRET) assay which measures acetylation of a synthetic, biotinylated Histone-H4-derived peptide by the enzyme.
In this case 50 nl DMSO were used instead of compounds. […] IC50 values were determined by regression analysis based on a 4 parameter equation (minimum, maximum, ICM, Hill; Y=Max+(Min−Max)/(1+(X/ICso) Hill) using the Screener Software (Genedata).
(In general: In TR-FRET formats the signal depends on donor and acceptor labels being close together.)

The test system of assay [2] is ESR1 transcription in MVLN cells. In words: MVLN reporter assay: repression of ESR1 transcription (luciferase signal). It counts as cell-based. The note with it: Homo sapiens, MVLN, 24 h, luciferase signal after 24 h, read-out: MVLN reporter assay, IC50 [M] (arithmetic mean). In short, it runs like this:
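MVLN cells, expressing ER and stably carrying a vitellogenin A2 ERE-luciferase reporter, treated with compound in duplicate; luciferase read after 24 h with Steadylite plus. Cell density checked in parallel by Alamar Blue fluorescence (530/590 nm, 2 h) before the luciferase read.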
(In a reporter assay the amount or activity of a reporter protein is the signal.)

Assay [3] concerns the target T2, Recombinant human His-tagged Kat6a protein (amino acids 194-810) (Homo sapiens, UniProt Q92794).
T2 construct: Kat6a protein (amino acids 194-810); His
In words: Kat6a activity assay (TR-FRET, acetylation of Histone-H4-derived peptide). It is filed as biochemical. The note with it: 60 mins at 22° C., 220 nM H4 peptide, 600 nM Acetyl Coenzyme A, read-out: KAT6A - DPF/HAT domain IC50 [mol/l] (arithmetic mean).

The subject of the next assay is MDA-MB-436 cells. In words: MDA-MB-436 proliferation assay (negative control cell line). It counts as cell-based. The note with it: Homo sapiens, 144 h, Alamar Blue, read-out: MDA-MB-436 proliferation assay, EC50 [M] (arithmetic mean). Summed up: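 MDA-MB-436 cells (KAT6A deletion, low KAT6A protein) seeded at 3000 cells/well in DMEM/Ham's F12 with 2.5% FBS, treated in triplicate for 144 h at 37° C, 5% CO2. Viability read by Alamar Blue fluorescence at 590 nm after 2 h.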
For orientation: Resazurin is reduced to fluorescent resorufin, in cell work by metabolically active cells.

The test system of another assay is LCLC97TM1. In words: LCLC97TM1 proliferation assay. It counts as cell-based. The note with it: Homo sapiens, LCLC-97TM1, LCLC97TM1; read-out: LCLC97TM1 proliferation assay; EC50 [M] (arithmetic mean).

This is an account of results in patent publication US20240279207A1, “SUBSTITUTED ACYL SULFONAMIDES FOR TREATING CANCER” (The Broad Institute, Inc., priority 2020, published 2024).

T2 sequence (Q92794 194-810): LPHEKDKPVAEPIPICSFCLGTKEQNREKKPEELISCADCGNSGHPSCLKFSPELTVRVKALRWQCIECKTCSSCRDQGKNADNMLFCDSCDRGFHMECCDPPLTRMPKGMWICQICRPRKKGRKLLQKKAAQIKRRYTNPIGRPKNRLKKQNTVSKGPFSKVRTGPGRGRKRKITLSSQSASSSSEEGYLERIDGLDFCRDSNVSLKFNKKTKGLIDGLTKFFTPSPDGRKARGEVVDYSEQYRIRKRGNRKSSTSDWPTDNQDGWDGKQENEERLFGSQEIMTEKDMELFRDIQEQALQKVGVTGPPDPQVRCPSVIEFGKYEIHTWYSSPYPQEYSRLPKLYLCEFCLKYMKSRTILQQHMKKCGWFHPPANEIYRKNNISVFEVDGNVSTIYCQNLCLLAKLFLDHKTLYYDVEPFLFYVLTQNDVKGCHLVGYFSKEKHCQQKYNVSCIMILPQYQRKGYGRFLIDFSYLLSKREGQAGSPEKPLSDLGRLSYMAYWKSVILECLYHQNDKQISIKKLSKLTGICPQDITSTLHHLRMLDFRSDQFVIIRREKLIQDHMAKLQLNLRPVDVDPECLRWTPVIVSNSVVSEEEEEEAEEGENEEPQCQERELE
T1 sequence (Q8WYB5 431-2073): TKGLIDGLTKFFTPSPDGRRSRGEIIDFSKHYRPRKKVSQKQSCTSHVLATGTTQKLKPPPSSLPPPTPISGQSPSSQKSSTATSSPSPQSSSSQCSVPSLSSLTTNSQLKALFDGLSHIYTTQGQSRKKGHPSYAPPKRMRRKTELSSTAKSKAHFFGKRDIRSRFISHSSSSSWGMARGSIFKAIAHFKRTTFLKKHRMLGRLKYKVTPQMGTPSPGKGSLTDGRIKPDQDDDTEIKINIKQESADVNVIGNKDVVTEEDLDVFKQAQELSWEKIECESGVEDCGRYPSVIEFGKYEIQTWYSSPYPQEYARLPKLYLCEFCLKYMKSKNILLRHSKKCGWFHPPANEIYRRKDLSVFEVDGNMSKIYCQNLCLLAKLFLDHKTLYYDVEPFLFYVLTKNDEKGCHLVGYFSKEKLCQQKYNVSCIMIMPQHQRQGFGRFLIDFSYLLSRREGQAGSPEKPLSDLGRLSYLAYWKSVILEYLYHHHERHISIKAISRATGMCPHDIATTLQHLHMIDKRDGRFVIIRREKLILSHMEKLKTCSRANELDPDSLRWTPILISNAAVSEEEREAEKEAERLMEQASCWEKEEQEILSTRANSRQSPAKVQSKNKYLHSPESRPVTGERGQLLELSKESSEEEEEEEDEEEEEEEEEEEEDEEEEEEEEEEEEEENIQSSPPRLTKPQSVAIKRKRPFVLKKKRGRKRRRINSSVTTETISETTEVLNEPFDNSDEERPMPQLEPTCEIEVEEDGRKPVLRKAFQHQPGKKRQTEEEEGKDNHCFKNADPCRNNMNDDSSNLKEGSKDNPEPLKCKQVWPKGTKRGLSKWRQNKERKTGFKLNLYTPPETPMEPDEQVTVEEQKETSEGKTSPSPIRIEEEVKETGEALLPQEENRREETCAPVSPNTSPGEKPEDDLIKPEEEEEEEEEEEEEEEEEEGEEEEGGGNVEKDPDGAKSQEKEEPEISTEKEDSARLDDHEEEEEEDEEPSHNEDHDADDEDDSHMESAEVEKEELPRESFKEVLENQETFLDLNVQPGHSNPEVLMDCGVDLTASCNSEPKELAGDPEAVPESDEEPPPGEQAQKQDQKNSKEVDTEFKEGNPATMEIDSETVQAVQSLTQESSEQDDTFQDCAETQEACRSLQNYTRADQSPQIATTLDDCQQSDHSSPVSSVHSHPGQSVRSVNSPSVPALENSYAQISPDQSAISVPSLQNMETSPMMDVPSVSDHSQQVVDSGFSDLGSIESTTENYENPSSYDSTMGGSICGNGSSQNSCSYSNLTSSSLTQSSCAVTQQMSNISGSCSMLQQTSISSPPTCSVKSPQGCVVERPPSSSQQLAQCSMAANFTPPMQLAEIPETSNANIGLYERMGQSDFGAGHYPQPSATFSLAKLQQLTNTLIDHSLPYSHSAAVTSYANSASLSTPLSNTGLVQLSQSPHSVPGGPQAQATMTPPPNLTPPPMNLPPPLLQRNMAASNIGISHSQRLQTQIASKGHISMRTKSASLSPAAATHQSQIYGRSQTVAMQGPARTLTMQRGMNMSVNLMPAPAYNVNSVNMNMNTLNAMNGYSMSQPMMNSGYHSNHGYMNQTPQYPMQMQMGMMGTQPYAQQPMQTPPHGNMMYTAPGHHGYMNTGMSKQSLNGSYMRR

For `O=C(NS(=O)(=O)c1ccccc1OC1CC1)c1cc2c(F)cc(N3CCC3)cc2o1` [Example 131, 6-(Azetidin-1-yl)-N-[2-(cyclopropyloxy)benzene-1-sulfonyl]-4-fluoro-1-benzofuran-2-carboxamide], the figures for the EC50 in the assay with ZR-75-1 cells, in the assay with MDA-MB-436 cells and with LCLC97TM1 were 2.09e-07 M, greater than 2e-05 M and 7.53e-08 M, respectively. The IC50 in assay [1] came to 23.2 nM; in assay [2] it was 3.83e-08 M; in assay [3] it was 23.4 nM.

For the molecule `COc1ccc(C(C)(C)C)cc1S(=O)(=O)NC(=O)c1cc2c(F)cc(N3CC(F)C3)cc2o1` [Example 150, N-(5-tert-butyl-2-methoxybenzene-1-sulfonyl)-4-fluoro-6-(3-fluoroazetidin-1-yl)-1-benzofuran-2-carboxamide], the figures for the EC50 in the assay on ZR-75-1 cells, in the assay on MDA-MB-436 cells and in the assay on LCLC97TM1 were 5.78e-08 M, greater than 2e-05 M and 4.58e-08 M, respectively. Further, the figures for the IC50 in assay [1], in assay [2] and in assay [3] were 9.78 nM, 5.97e-09 M and 4.25 nM, respectively.

For the molecule `CCOc1ccc(C(C)C)cc1S(=O)(=O)NC(=O)c1cc2c(F)cc(N3CC(F)C3)cc2o1` [Example 151, N-[2-ethoxy-5-(propan-2-yl)benzene-1-sulfonyl]-4-fluoro-6-(3-fluoroazetidin-1-yl)-1-benzofuran-2-carboxamide], the EC50 is 5.67e-08 M with ZR-75-1 cells, greater than 2e-05 M in the assay on MDA-MB-436 cells and 6.63e-08 M with LCLC97TM1. The results for the IC50 in assay [1], in assay [2] and in assay [3] were 13.7 nM, 1.55e-08 M and 5.81 nM, respectively.

Consider `Cc1ccc2cccc(S(=O)(=O)NC(=O)c3cc4c(F)cc(N5CC(F)C5)cc4o3)c2n1` [Example 152, 4-Fluoro-6-(3-fluoroazetidin-1-yl)-N-(2-methylquinoline-8-sulfonyl)-1-benzofuran-2-carboxamide], for which the EC50 was 7.66e-08 M in the assay with ZR-75-1 cells, greater than 2e-05 M in the assay on MDA-MB-436 cells and 1.63e-07 M in the assay on LCLC97TM1. Further, the IC50 came to 20.3 nM in assay [1], 3.69e-08 M in assay [2] and 13.9 nM in assay [3].

As to `COc1ccc(-c2cn(C)nc2C)cc1S(=O)(=O)NC(=O)c1cc2c(F)cc(N3CCC3)cc2o1` [Example 195, 6-(Azetidin-1-yl)-N-[5-(1,3-dimethyl-1H-pyrazol-4-yl)-2-methoxybenzene-1-sulfonyl]-4-fluoro-1-benzofuran-2-carboxamide], the EC50 is 1.99e-07 M with ZR-75-1 cells, greater than 2e-05 M in the assay with MDA-MB-436 cells and 8.37e-07 M in the assay on LCLC97TM1. The IC50 in assay [1] is 20.1 nM; in assay [2] it was 1.11e-07 M; in assay [3], 5.07 nM.

Regarding `CC(C)c1ccc(OCc2ccccc2)c(S(=O)(=O)NC(=O)c2cc3c(F)cc(N4CCC4)cc3o2)c1` [Example 213, 6-(azetidin-1-yl)-N-(2-benzyloxy-5-isopropyl-phenyl)sulfonyl-4-fluoro-benzofuran-2-carboxamide], the EC50 in the assay on ZR-75-1 cells came to 1.17e-07 M; with MDA-MB-436 cells, 1.41e-05 M; with LCLC97TM1, 1.52e-07 M. The results for the IC50 in assay [1], in assay [2] and in assay [3] were 14.7 nM, 3.31e-08 M and 6.18 nM, respectively.

`CC(C)(C)c1ccc(OC2CC2)c(S(=O)(=O)NC(=O)c2cc3c(F)cc(N4CCC4)cc3o2)c1` [Example 224, 6-(Azetidin-1-yl)-N-[(5-(tert-butyl)-2-cyclopropoxyphenyl)sulfonyl]-4-fluorobenzofuran-2-carboxamide]: the EC50 in the assay on ZR-75-1 cells stood at 7.5e-08 M; in the assay on MDA-MB-436 cells, 1.77e-05 M; in the assay on LCLC97TM1, 1.14e-07 M. For the same molecule, the IC50 was found to be 9.82 nM in assay [1], 2.76e-08 M in assay [2] and 3.72 nM in assay [3].

Take `CC(C)(C)c1ccc(OCc2ccccc2)c(S(=O)(=O)NC(=O)c2cc3c(F)cc(N4CCC4)cc3o2)c1` [Example 225, 6-(Azetidin-1-yl)-N-[(2-(benzyloxy)-5-(tert-butyl)phenyl]sulfonyl)-4-fluorobenzofuran-2-carboxamide]: the EC50 in the assay on ZR-75-1 cells is 7.5e-08 M; in the assay on MDA-MB-436 cells, 1.77e-05 M; in the assay with LCLC97TM1, 1.14e-07 M. Besides, the IC50 is 9.82 nM in assay [1], 2.76e-08 M in assay [2] and 3.72 nM in assay [3].

On to `CC(C)(C)c1ccc(OC2CCC2)c(S(=O)(=O)NC(=O)c2cc3c(F)cc(N4CCC4)cc3o2)c1` [Example 228, 6-(Azetidin-1-yl)-N-[(5-(tert-butyl)-2-cyclobutoxyphenyl)sulfonyl]-4-fluorobenzofuran-2-carboxamide], for which the EC50 was 1.16e-07 M in the assay with ZR-75-1 cells, greater than 2e-05 M in the assay on MDA-MB-436 cells and 1.67e-07 M in the assay on LCLC97TM1. Moreover, the IC50 was 13.4 nM in assay [1], 2.39e-08 M in assay [2] and 2.57 nM in assay [3].

With `CC(C)Oc1ccc(C(C)(C)C)cc1S(=O)(=O)NC(=O)c1cc2c(F)cc(N3CCC3)cc2o1` [Example 229, 6-(Azetidin-1-yl)-N-[(5-(tert-butyl)-2-isopropoxyphenyl)sulfonyl]-4-fluorobenzofuran-2-carboxamide], the EC50 with ZR-75-1 cells is 2.18e-07 M; with MDA-MB-436 cells, greater than 2e-05 M; in the assay on LCLC97TM1, 1.8e-07 M. The values for the IC50 in assay [1], in assay [2] and in assay [3] were 27.6 nM, 3.83e-08 M and 4.79 nM, respectively.
